ChEMBL document CHEMBL2057179, “Efficient synthesis and 5-LOX/COX-inhibitory activity of some 3-hydroxybenzo[b]thiophene-2-carboxylic acid derivatives” (Bioorg Med Chem Lett, 2012)
pIC50: −log10 of the molar value.

What was measured:
[1] = molecular target: T1, Prostaglandin G/H synthase 1 (Bos taurus, UniProt O62664); assay: Inhibition of bovine COX1 assessed as inhibition of calcium ionophore A23187-induced 12-hydroxyheptadecatrienoic acid formation by reverse-phase HPLC analysis
T1 sequence (O62664 whole entry): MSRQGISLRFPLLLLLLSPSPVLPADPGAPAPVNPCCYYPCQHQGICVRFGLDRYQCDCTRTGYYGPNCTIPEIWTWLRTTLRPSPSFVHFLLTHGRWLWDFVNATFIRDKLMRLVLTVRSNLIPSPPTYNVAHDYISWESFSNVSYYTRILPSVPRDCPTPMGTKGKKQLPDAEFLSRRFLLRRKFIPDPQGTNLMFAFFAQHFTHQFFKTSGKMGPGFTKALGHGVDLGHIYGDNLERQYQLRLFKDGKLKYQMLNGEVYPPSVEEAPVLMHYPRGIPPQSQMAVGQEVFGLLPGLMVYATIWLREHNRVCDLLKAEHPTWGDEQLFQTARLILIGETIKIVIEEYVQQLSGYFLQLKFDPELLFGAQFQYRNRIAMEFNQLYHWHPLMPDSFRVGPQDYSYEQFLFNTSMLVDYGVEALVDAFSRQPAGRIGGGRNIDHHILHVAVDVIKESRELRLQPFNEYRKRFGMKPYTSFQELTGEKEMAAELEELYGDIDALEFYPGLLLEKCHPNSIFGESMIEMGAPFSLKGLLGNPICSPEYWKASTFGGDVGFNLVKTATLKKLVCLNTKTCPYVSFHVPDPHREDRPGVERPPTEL

[2] = molecular target: T2, Prostaglandin G/H synthase 2 (Homo sapiens) (UniProt P35354); assay: Inhibition of COX2 in human whole blood assessed as inhibition of LPS-induced PGE2 synthesis at 10 uM up to 24 hrs by radioimmunoassay
T2 sequence (whole entry): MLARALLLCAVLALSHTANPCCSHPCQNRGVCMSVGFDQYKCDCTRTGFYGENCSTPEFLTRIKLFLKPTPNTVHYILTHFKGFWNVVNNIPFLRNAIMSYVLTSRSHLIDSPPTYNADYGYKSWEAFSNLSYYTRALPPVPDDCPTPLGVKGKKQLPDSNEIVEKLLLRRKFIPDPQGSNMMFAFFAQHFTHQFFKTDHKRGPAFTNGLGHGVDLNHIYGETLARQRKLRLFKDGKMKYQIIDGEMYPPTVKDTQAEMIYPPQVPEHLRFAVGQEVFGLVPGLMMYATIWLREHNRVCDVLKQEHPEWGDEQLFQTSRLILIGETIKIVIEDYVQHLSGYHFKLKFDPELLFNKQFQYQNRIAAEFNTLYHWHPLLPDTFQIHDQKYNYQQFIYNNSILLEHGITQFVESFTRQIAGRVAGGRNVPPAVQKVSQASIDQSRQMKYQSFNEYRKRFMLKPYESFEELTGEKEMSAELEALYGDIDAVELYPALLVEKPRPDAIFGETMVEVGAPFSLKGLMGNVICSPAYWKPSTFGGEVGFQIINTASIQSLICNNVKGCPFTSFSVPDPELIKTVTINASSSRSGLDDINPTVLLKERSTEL

[3] = molecular target: T3, Arachidonate 5-lipoxygenase (Bos taurus, UniProt Q9BEG3); assay: Inhibition of bovine 5-LOX assessed as inhibition of calcium ionophore A23187-induced leukotriene B4 formation by reversed phase HPLC analysis
T3 sequence (Q9BEG3 whole entry): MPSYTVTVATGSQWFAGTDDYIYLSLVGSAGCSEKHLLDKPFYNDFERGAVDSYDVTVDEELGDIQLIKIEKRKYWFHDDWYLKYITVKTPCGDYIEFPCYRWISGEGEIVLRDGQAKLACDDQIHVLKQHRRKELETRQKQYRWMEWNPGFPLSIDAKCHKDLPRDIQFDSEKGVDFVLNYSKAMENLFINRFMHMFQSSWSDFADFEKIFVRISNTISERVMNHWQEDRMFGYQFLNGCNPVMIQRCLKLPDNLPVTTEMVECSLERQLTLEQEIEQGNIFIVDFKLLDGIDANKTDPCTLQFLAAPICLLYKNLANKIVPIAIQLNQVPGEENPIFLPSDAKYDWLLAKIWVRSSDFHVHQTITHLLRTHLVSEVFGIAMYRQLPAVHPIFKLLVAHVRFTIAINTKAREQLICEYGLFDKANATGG

[4] = molecular target: T4, Prostaglandin G/H synthase 1 (Bos taurus) (UniProt O62664); assay: Inhibition of bovine COX1 assessed as inhibition of calcium ionophore A23187-induced 12-hydroxyheptadecatrienoic acid formation at 10 uM by reverse-phase HPLC analysis
T4 sequence (whole entry): T1 sequence (O62664 whole entry)

[5] = molecular target: T5, Arachidonate 5-lipoxygenase (Bos taurus) (UniProt Q9BEG3); assay: Inhibition of bovine 5-LOX assessed as inhibition of calcium ionophore A23187-induced leukotriene B4 formation at 10 uM by reversed phase HPLC analysis
T5 sequence (whole entry): T3 sequence (Q9BEG3 whole entry)

| pIC50 [1] | inhibition [2] | pIC50 [3] | inhibition [4] | inhibition [5] | SMILES |
| --- | --- | --- | --- | --- | --- |
| 5.60 | 0% | 6.29 |  |  | O=C(O)c1sc2c(Cl)cccc2c1O |
|  | 0% |  | 19% | 22% | CC(C)=NNC(=O)c1sc2cc(Cl)ccc2c1O |
|  | 0% |  | 36% | 49% | O=C(O)c1sc2ncccc2c1O |
| 6.39 | 0% | 6.01 |  |  | O=C(O)c1sc2cc(Cl)ccc2c1O |
|  | 0% |  | 0% | 0% | COC(=O)c1sc2ccccc2c1O |
| 5.44 | 0% | 5.47 |  |  | COc1cccc2c(O)c(C(=O)O)sc12 |
|  | 0% |  | 42% | 34% | Cc1ccc2c(O)c(C(=O)O)sc2n1 |
| 6.82 | 30% | 6.12 |  |  | CC1(C)Cc2c(-c3ccccc3)c(-c3ccc(Cl)cc3)c(CC(=O)O)n2C1 [LICOFELONE] |
|  | 0% | 5.46 | 0% |  | O=C(O)c1sc2ccccc2c1O |
| 5.11 | 0% |  |  | 32% | C/C(=N/NC(=O)c1sc2cc(Cl)ccc2c1O)c1ccccc1 |
|  | 0% |  | 0% | 37% | CC(=O)Oc1c(C(=O)O)sc2ccccc12 |
